Laboratory results published in patent US20260015339A1, “CALIX[4]ARENES WITH HIGH ANTICANCER ACTIVITY” (UNIVERSITE GRENOBLE ALPES, priority 2023, published 2026).

What was measured:
[1] = Cu^+ transport into liposomes with encapsulated BCS; settings: POPC/cholesterol 7:3 LUVs, calix[4]arene to lipid 1:1000, 50 μM copper gradient, F/F0 after 600 s
Protocol: The ability of the examples of calix[4]arenes of the invention and the comparative examples to be delivered into a lipidic bilayer membrane of a liposome from a solution and their capacity to then act as a transporter of Cu^+ was evaluated using bathocuproine disulphonate (hereafter abbreviated “BCS”) encapsulated in large unilamellar vesicles (LUVs, also referred to as liposomes) composed of 1-palmitoyl-2-oleoyl-sn-glycero-3-phosphocholine and cholesterol in a 7:3 ratio.
BCS is a fluorescent water soluble phenantroline derivative that can be used as fluorescent dye for the sensing of Cu^+ through the formation of a non-fluorescent 2:1 complex.
Stock solution of lipids were prepared using deacidified CHCl3 and stored in a freezer. CHCl3 was deacidified by passing through activated basic alumina. The lipids used to prepare the liposomes were 2-oleoyl-1-palmitoyl-sn-glycero-3-phosphocholine (POPC), (purity ≥99%) and cholesterol (purity of 95%). 50 mM sodium phosphate buffer were prepared with Millipore water at pH 7 (±0.1) by mixing the solution of the mono- and the di-protonated phosphate salts. The solution of the dye (BCS) was prepared at 0.5 mM concentration in phosphate buffer.
The lipids solutions were mixed in different ratios in a 5 mL round bottom flask. The POPC/cholesterol molar ratio was 7:3 in all experiments. The total amount of lipids per batch varied depending on the amount of liposomes solution required for the experiment. After mixing the lipid solutions in a round bottom flask, the chloroform was evaporated under a gentle air flow and the resulting lipid film was dried at high vacuum for at least an hour. 500 μL of the BCS solution in phosphate buffer and a magnetic stir bar were added to the flask. The flask was then sonicated for 30 seconds and placed under magnetic agitation for at least an hour. The solution was frozen with liquid nitrogen and heated back to room temperature with warm water ten times to form large unilamellar vesicles (LUVs). The liposome solution was extruded 29 times, using an extrusion kit equipped with a membrane with 200 nm pores. Subsequently, the solution was eluted with the buffer solution used for the experiment through a size exclusion column (Sephadex G-25) to remove the external BCS and then diluted with phosphate buffer to obtain a concentration of 0.4 mM in lipids.
Solutions of the calix[4]arenes were prepared at a concentration of 0.24 mM in DMSO and 5 μL of the solution was added 2 minutes before each transport measurement.
Alternatively, calix[4]arenes were pre-incorporated by combining the calix[4]arene (dissolved in chloroform) with the lipids prior to the evaporation of the chloroform to obtain a lipid film. The concentrations and volumes were chosen to obtain a calix[4]arene to lipid of 1:1000.
Fluorescence measurements were performed with a Horiba FluoroMax 4 spectrometer using a 4-faced quartz cuvette (10 mm×10 mm). For the Cu^+ transport assay, the excitation was set at 278 nm and emission was recorded at 393 nm. These values correspond to the excitation and emission maxima of BCS encapsulated inside LUVs.
The Cu^+ solutions added to the liposomes were obtained by dissolving Cu(MeCN)4BF4 in MeCN at 15.25 mM concentration. The copper solution was then diluted by a factor 5 in a phosphate buffer during the first 30 seconds of the experiment to reach a copper concentration of 3.05 mM. 50 μL of the diluted copper solution was added to 3 mL of liposomes, resulting in a copper gradient of 50 μM. The fluorescence level was monitored for 600 seconds after the addition of the copper solution.
For each run the initial plateau and the initial vertical drop (due to the binding of the exterior dye with Cu^+ and the dilution, 1-4 seconds after the addition) were removed. Then the signal was normalised by dividing the fluorescence values (F) by the value at t=0 second (F0). […]

[2] = test system: Hepatocellular carcinoma (HepG2/C3A) cells; experiment: MTT cytotoxicity assay (DL50); format: cell-based; settings: 24 hours of incubation
Protocol: Cytotoxicity was evaluated using the MTT assay. 1.10^4 cells per well were seeded in a flat-bottom 96-well plate and were incubated for 48 hours at 37° C. with 5% CO2 before addition of the different calix[4]arenes at concentrations up to 200 μM. In all experiments, each condition was performed in triplicate in the plate. Besides, each experiment was done three times independently. After 24 hours of incubation in presence of the compounds, medium was discarded, cells were rinsed with PBS and 100 μL of medium containing 0.5 mg/mL of MTT was added to each well. After 30 minutes of incubation at 37° C., MTT solution was discarded and formazan crystals formed were dissolved in 150 μL of 4 mM HCl, 0.1% NP40 in isopropanol. The absorbance in the wells were read in a microplate reader (Tecan microplate reader-550) at 570 nm.

[3] = Cu^+ binding by 1H NMR titration; settings: 1H NMR titration with Cu(MeCN)4BF4, CD3CN/CDCl3 4/1, 298 K
Protocol: Binding abilities and complexation constants of the examples of calix[4]arenes of the present invention and the comparative examples with Cu^+ were evaluated by ^1H NMR titrations at 298 K using copper(I)tetrakis(acetronitrile)tetrafluoroborate.
For example, for each separate calix[4]arene a stock solution of the tested calix[4]arene was prepared in a CD3CN/CDCl3, 4/1 mixture. Using this stock solution, a Cu(MeCN)4BF4 solution was prepared and added by steps of 0.25 equivalent of copper(I) up until 1 equivalent and then by steps of 0.5 equivalent until a total of at least 2 equivalents. ^1H NMR spectra were recorded at a 400 MHz spectrometer at 298 K for the stock solutions of the calix[4]arenes and after each addition of Cu(MeCN)4BF4.
Calix[4]arenes for which a gradual change of the chemical shifts of the ^1H NMR signals (>0.1 ppm for at least one of the signals) was observed upon addition of up to 4-5 equivalents of Cu(MeCN)4BF4 were considered to show weak binding.

[4] = test system: H322 lung carcinoma cells; experiment: MTS cytotoxicity assay on H322; format: cell-based; settings: NCI-H322; H322, 72 hours of treatment
Protocol: H322 lung carcinoma cells were seeded in 96-well plates together with the calix[4]arene of the formula (2). Cells were grown in RPMI-1640 supplemented with GlutaMAX™ (Gibco™) and fetal calf serum (FCS, 10%) and treated with a broad range of concentrations of the calix[4]arene of the formula (2). After 72 hours of treatment, the cytotoxicity was measured by means of the IC50 value, using the kit “CellTiter 96R AQuous One Solution Cell Proliferation Assay (MTS)” from Promega™. Following 30 minutes of incubation with the MTS reagent, the endpoint measurements were done in triplicate at 485 nm, using a fluorescence plate reader.
H322 lung carcinoma cells were seeded in 96-well plates together with the compound of the 2nd comparative example of the formula (XI). Cells were grown in RPMI-1640 supplemented with GlutaMAX™ (Gibco™) and fetal calf serum (FCS, 10%) and treated with a broad range of concentrations of the 2nd comparative example of the formula (XI). After 72 hours of treatment, the cytotoxicity was measured by means of the IC50 value, using the kit “CellTiter 96R AQuous One Solution Cell Proliferation Assay (MTS)” from Promega™. Following 30 minutes of incubation with the MTS reagent, the endpoint measurements were done in triplicate at 485 nm, using a fluorescence plate reader.
H322 lung carcinoma cells were seeded in 96-well plates together with the 1st comparative example of the formula (X). Cells were grown in RPMI-1640 supplemented with GlutaMAX™ (Gibco™) and fetal calf serum (FCS, 10%) and treated with a broad range of concentrations of the compound of the formula (X). After 72 hours of treatment, the cytotoxicity was measured by means of the IC50 value, using the kit “CellTiter 96R AQuous One Solution Cell Proliferation Assay (MTS)” from Promega™. Following 30 minutes of incubation with the MTS reagent, the endpoint measurements were done in triplicate at 485 nm, using a fluorescence plate reader.
H322 lung carcinoma cells were seeded in 96-well plates together with the tested calix[4]arenes. Cells were grown in RPMI-1640 supplemented with GlutaMAX™ (Gibco™) and fetal calf serum (FCS, 10%) and treated with a broad range of concentrations of the tested calix[4]arenes. After 72 hours of treatment, the cytotoxicity was measured by means of the IC50 value, using the kit “CellTiter 96R AQuous One Solution Cell Proliferation Assay (MTS)” from Promega™. Following 30 minutes of incubation with the MTS reagent, the endpoint measurements were done in triplicate at 485 nm, using a fluorescence plate reader.

[5] = test system: PC9 human lung cancer cells; experiment: MTS cytotoxicity assay, combination with CuCl2, PC9; settings: 72 hours
Protocol: PC9 human lung cancer cells were seeded in 96-well plates together with the calix[4]arene of the formula (2) and CuCl2. Cells were grown in RPMI-1640 supplemented with GlutaMAX™ (Gibco™) and fetal calf serum (FCS, 10%) treated with a broad range of concentrations of the calix[4]arene of the formula (2) or/and CuCl2 from Merck. After 72 hours of treatment, the cytotoxicity was measured by means of the IC50 value, using the kit “CellTiter 96R AQuous One Solution Cell Proliferation Assay (MTS)” from Promega™. Following 30 minutes of incubation with the MTS reagent, the endpoint measurements were done in triplicate at 485 nm, using a fluorescence plate reader.

[6] = test system: A549 human lung cancer cells; experiment: MTS cytotoxicity assay, combination with CuCl2, A549; settings: 72 hours
Protocol: A549 human lung cancer cells were seeded in 96-well plates together with the calix[4]arene of the formula (2) and CuCl2. Cells were grown in RPMI-1640 supplemented with GlutaMAX™ (Gibco™) and fetal calf serum (FCS, 10%) treated with a broad range of concentrations of the calix[4]arene of the formula (2) or/and CuCl2 from Merck. After 72 hours of treatment, the cytotoxicity was measured by means of the IC50 value, using the kit “CellTiter 96R AQuous One Solution Cell Proliferation Assay (MTS)” from Promega™. Following 30 minutes of incubation with the MTS reagent, the endpoint measurements were done in triplicate at 485 nm, using a fluorescence plate reader.

[7] = test system: H322 lung carcinoma cells; experiment: MTS cytotoxicity assay, combination with CuCl2, H322; settings: 72 hours
Protocol: H322 lung carcinoma cells were seeded in 96-well plates together with the calix[4]arene of the formula (2) and CuCl2. Cells were grown in RPMI-1640 supplemented with GlutaMAX™ (Gibco™) and fetal calf serum (FCS, 10%) treated with a broad range of concentrations of the calix[4]arene of the formula (2) or/and CuCl2 from Merck. After 72 hours of treatment, the cytotoxicity was measured by means of the IC50 value, using the kit “CellTiter 96R AQuous One Solution Cell Proliferation Assay (MTS)” from Promega™ Following 30 minutes of incubation with the MTS reagent, the endpoint measurements were done in triplicate at 485 nm, using a fluorescence plate reader.

Compound | Cu^+ transport [1] | IC50 [2] [µM] | Cu^+ binding [3] | IC50 [4] [µM] | further results
C=CCOc1c2cccc1Cc1cccc(c1OCc1nccn1C)Cc1cccc(c1OCC=C)Cc1cccc(c1OCc1nccn1C)C2 [(3)] | Yes (means that a significant decrease of the fluorescence of encapsulated BCS was observed upon addition of Cu^+ to the liposomes (F/F0<0.65 after 600 s)) | 4.5 | Strong binding (means an affinity constant (Ka) equal or greater than 10^5 M^−1) | 5 | 
CCOC(=O)COc1c2cccc1Cc1cccc(c1OCc1nccn1C)Cc1cccc(c1OCC(=O)OCC)Cc1cccc(c1OCc1nccn1C)C2 [(4)] | Yes (means that a significant decrease of the fluorescence of encapsulated BCS was observed upon addition of Cu^+ to the liposomes (F/F0<0.65 after 600 s)) | 3.1 | Strong binding (means an affinity constant (Ka) equal or greater than 10^5 M^−1) | 6 | 
COc1c2cccc1Cc1cccc(c1OCc1nccn1C)Cc1cccc(c1OC)Cc1cccc(c1OCc1nccn1C)C2 [(5)] | Yes (means that a significant decrease of the fluorescence of encapsulated BCS was observed upon addition of Cu^+ to the liposomes (F/F0<0.65 after 600 s)) | 23 | Strong binding (means an affinity constant (Ka) equal or greater than 10^5 M^−1) | > 10 | 
Cn1ccnc1COc1c2cccc1Cc1cccc(c1O)Cc1cccc(c1OCc1nccn1C)Cc1cccc(c1O)C2 [(6)] | Yes (means that a significant decrease of the fluorescence of encapsulated BCS was observed upon addition of Cu^+ to the liposomes (F/F0<0.65 after 600 s)) | 20.7 | Strong binding (means an affinity constant (Ka) equal or greater than 10^5 M^−1) | > 10 | 
CCCOc1c2cc([N+](=O)[O-])cc1Cc1cccc(c1OCc1nccn1C)Cc1cc([N+](=O)[O-])cc(c1OCCC)Cc1cccc(c1OCc1nccn1C)C2 [(7)] | Yes (means that a significant decrease of the fluorescence of encapsulated BCS was observed upon addition of Cu^+ to the liposomes (F/F0<0.65 after 600 s)) | 10.9 | Strong binding (means an affinity constant (Ka) equal or greater than 10^5 M^−1) | 5 | 
CCCOc1c2cccc1Cc1cccc(c1OCc1nc3ccccc3n1C)Cc1cccc(c1OCCC)Cc1cccc(c1OCc1nc3ccccc3n1C)C2 [(8)] | Yes (means that a significant decrease of the fluorescence of encapsulated BCS was observed upon addition of Cu^+ to the liposomes (F/F0<0.65 after 600 s)) | 128 | Strong binding (means an affinity constant (Ka) equal or greater than 10^5 M^−1) |  | 
CCCOc1c2cccc1Cc1cccc(c1OCc1ncco1)Cc1cccc(c1OCCC)Cc1cccc(c1OCc1ncco1)C2 [(9)] | Yes (means that a significant decrease of the fluorescence of encapsulated BCS was observed upon addition of Cu^+ to the liposomes (F/F0<0.65 after 600 s)) | 70 | Weak binding (means a change of the chemical shifts of the ^1H NMR signals (>0.1 ppm for at least one of the signals) is observed upon addition of up to 4-5 equivalents of Cu(MeCN)4BF4) |  | 
CCCOc1c2cccc1Cc1cccc(c1OCc1nccs1)Cc1cccc(c1OCCC)Cc1cccc(c1OCc1nccs1)C2 [(10)] | Yes (means that a significant decrease of the fluorescence of encapsulated BCS was observed upon addition of Cu^+ to the liposomes (F/F0<0.65 after 600 s)) |  | Weak binding (means a change of the chemical shifts of the ^1H NMR signals (>0.1 ppm for at least one of the signals) is observed upon addition of up to 4-5 equivalents of Cu(MeCN)4BF4) |  | 
CCCOc1c2cccc1Cc1cccc(c1OCc1ccccn1)Cc1cccc(c1OCCC)Cc1cccc(c1OCc1ccccn1)C2 [(38)] | Yes (means that a significant decrease of the fluorescence of encapsulated BCS was observed upon addition of Cu^+ to the liposomes (F/F0<0.65 after 600 s)) |  | Strong binding (means an affinity constant (Ka) equal or greater than 10^5 M^−1) |  | 
Oc1c(I)cc(Cl)c2cccnc12 [Clioquinol, clioquinol, reference compound] |  | 67 |  |  | 
[Cl][Cu][Cl] [Cu^2+, CuCl2] |  |  |  |  | percentage of cell viability ([5]; PC9, Cu^2+ 1 μM alone ((2) 0 μM)): 90.9%; percentage of cell viability ([5]; PC9, Cu^2+ 5 μM alone ((2) 0 μM)): 87.1%; percentage of cell viability ([5]; PC9, Cu^2+ 10 μM alone ((2) 0 μM)): 81.0%; percentage of cell viability ([5]; PC9, Cu^2+ 25 μM alone ((2) 0 μM)): 77.1%; percentage of cell viability ([5]; PC9, Cu^2+ 50 μM alone ((2) 0 μM)): 68.8%; percentage of cell viability ([6]; A549, Cu^2+ 1 μM alone ((2) 0 μM)): 89.4%; percentage of cell viability ([6]; A549, Cu^2+ 5 μM alone ((2) 0 μM)): 88.1%; percentage of cell viability ([6]; A549, Cu^2+ 10 μM alone ((2) 0 μM)): 84.6%; percentage of cell viability ([6]; A549, Cu^2+ 25 μM alone ((2) 0 μM)): 85.6%; percentage of cell viability ([6]; A549, Cu^2+ 50 μM alone ((2) 0 μM)): 79.4%; percentage of cell viability ([7]; H322, Cu^2+ 1 μM alone ((2) 0 μM)): 87.2%; percentage of cell viability ([7]; H322, Cu^2+ 5 μM alone ((2) 0 μM)): 83.3%; percentage of cell viability ([7]; H322, Cu^2+ 10 μM alone ((2) 0 μM)): 79.5%; percentage of cell viability ([7]; H322, Cu^2+ 25 μM alone ((2) 0 μM)): 72.9%; percentage of cell viability ([7]; H322, Cu^2+ 50 μM alone ((2) 0 μM)): 60.6%
CCCOc1c2cccc1Cc1cccc(c1OCc1nccn1C)Cc1cccc(c1OCCC)Cc1cccc(c1OCc1nccn1C)C2 [formula (2)] |  | 3.1 |  |  | 
